Reference: PubChem BioAssay AID652137 (The Scripps Research Institute Molecular Screening Center, 2013)
Calls of active or inactive are those of the source. No rule for the calls is given here.

target: Hepatocyte nuclear factor 4-alpha (Homo sapiens) (UniProt P41235); test: HNF4 dimerization inhibitors, late-stage follow-up, counter-screen for ABHD5-PLIN5 interaction inhibitor project, biochemical, luminescence, dose response, round 3 (AID 652137); details: luminescence biochemical assay
Sequence (P41235 whole entry, looked up): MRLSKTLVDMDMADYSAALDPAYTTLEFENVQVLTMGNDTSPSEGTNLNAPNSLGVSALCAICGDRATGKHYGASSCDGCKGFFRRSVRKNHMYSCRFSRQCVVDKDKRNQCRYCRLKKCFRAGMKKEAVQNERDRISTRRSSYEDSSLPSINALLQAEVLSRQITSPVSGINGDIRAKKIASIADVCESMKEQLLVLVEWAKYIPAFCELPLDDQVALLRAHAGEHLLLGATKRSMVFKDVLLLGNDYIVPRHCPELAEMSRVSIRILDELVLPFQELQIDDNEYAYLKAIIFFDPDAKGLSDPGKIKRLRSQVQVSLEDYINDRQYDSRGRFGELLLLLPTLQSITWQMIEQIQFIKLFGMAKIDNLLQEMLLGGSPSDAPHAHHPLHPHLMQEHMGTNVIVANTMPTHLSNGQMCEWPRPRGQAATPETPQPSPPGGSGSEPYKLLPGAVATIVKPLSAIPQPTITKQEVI

SMILES | IC50
CCCCCCNC(=O)Nc1ccc2c(c1)N(C)C(=O)c1ccccc1S2 | > 39.8 µM (inactive)
CN1C(=O)c2ccccc2Sc2ccc(NC(=O)NCCCc3ccccc3)cc21 | > 39.8 µM (inactive)
CCCCCCCNC(=O)Nc1ccc2c(c1)N(C)C(=O)c1ccccc1S2 | > 39.8 µM (inactive)
CCCCCNC(=O)Nc1ccc2c(c1)N(C)C(=O)c1ccccc1S2 | > 39.8 µM (inactive)
CCCCNC(=O)Nc1ccc2c(c1)N(C)C(=O)c1ccccc1S2 | > 39.8 µM (inactive)
